PubChem BioAssay (NCI)
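Following 48 hours of exposure in 96-well plates, responses at five concentrations were used to interpolate endpoints linearly. TGI denotes the concentration required for complete inhibition of growth.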

Key:
Experiment in all cases: growth of human tumour cells (NCI), 48 h
UACC-62 melanoma = tested on: UACC-62 melanoma
SK-MEL-28 melanoma = tested on: SK-MEL-28 melanoma
MDA-MB-231 breast = tested on: MDA-MB-231 breast
M14 melanoma = tested on: M14 melanoma
NCI-H226 lung = tested on: NCI-H226 lung
PC-3 prostate = tested on: PC-3 prostate
RXF 393 renal = tested on: RXF 393 renal
SR leukemia = tested on: SR leukemia
HOP-62 NSCLC = tested on: HOP-62 NSCLC
IGROV1 ovarian = tested on: IGROV1 ovarian
SF-539 CNS = tested on: SF-539 CNS
NCI-H23 lung = tested on: NCI-H23 lung
MCF7 breast = tested on: MCF7 breast
HL-60(TB) leukemia = tested on: HL-60(TB) leukemia
NCI/ADR-RES ovarian = tested on: NCI/ADR-RES ovarian
MOLT-4 leukemia = tested on: MOLT-4 leukemia
ACHN renal = tested on: ACHN renal
UO-31 renal = tested on: UO-31 renal
CAKI-1 renal = tested on: CAKI-1 renal
K-562 leukemia = tested on: K-562 leukemia
786-0 renal = tested on: 786-0 renal
SN12C renal = tested on: SN12C renal
OVCAR-3 ovarian = tested on: OVCAR-3 ovarian
NCI-H460 lung = tested on: NCI-H460 lung
A498 renal = tested on: A498 renal
LOX IMVI melanoma = tested on: LOX IMVI melanoma
COLO 205 colon = tested on: COLO 205 colon
SK-MEL-5 melanoma = tested on: SK-MEL-5 melanoma
EKVX NSCLC = tested on: EKVX NSCLC
TK-10 renal = tested on: TK-10 renal
SNB-19 CNS = tested on: SNB-19 CNS
SK-OV-3 ovarian = tested on: SK-OV-3 ovarian
SNB-75 CNS = tested on: SNB-75 CNS
MALME-3M melanoma = tested on: MALME-3M melanoma
HCT-15 colon = tested on: HCT-15 colon
OVCAR-8 ovarian = tested on: OVCAR-8 ovarian
HT29 colon = tested on: HT29 colon
BT-549 breast = tested on: BT-549 breast
HCC-2998 colon = tested on: HCC-2998 colon
MDA-MB-435 = tested on: MDA-MB-435
SF-268 CNS = tested on: SF-268 CNS
RPMI-8226 leukemia = tested on: RPMI-8226 leukemia
CCRF-CEM leukemia = tested on: CCRF-CEM leukemia
NCI-H522 lung = tested on: NCI-H522 lung
HOP-92 NSCLC = tested on: HOP-92 NSCLC
U251 CNS = tested on: U251 CNS
OVCAR-4 ovarian = tested on: OVCAR-4 ovarian
DU-145 prostate = tested on: DU-145 prostate
SF-295 CNS = tested on: SF-295 CNS
OVCAR-5 ovarian = tested on: OVCAR-5 ovarian
SW-620 colon = tested on: SW-620 colon
MDA-N = tested on: MDA-N
A549 NSCLC = tested on: A549 NSCLC
SK-MEL-2 melanoma = tested on: SK-MEL-2 melanoma
KM12 colon = tested on: KM12 colon
UACC-257 melanoma = tested on: UACC-257 melanoma
T-47D breast = tested on: T-47D breast
HS 578T breast = tested on: HS 578T breast
HCT-116 colon = tested on: HCT-116 colon

Measured: TGI

C[N+](C)(C)C(Cc1c[nH]c(=S)[nH]1)C(=O)O (centres undefined)
> 100 µM: all assays above
